# Experimental data reported in patent publication US20130289083A1, “IDO Inhibitors” (priority 2007, published 2013).
# Read-outs that look alike come from different tables or passages of the source.
# Legend:
# human IDO = human IDO (Homo sapiens, UniProt P14902); experiment: Cell based IDO/kynurenine assay in IDO-293-T-Rex cells; settings: kynurenine production, read-out: hIDO EC50
# Description: 293-T-REx™ cells (Invitrogen) constitutively express a tet operator binding repressor protein and are maintained in DMEM, 10% FBS, 1× Penicillin+Streptomycin, 2 mM L-glutamine, 5 μg/mL blasticidin at 37° C. with a 5% CO2 in air atmosphere and typically split prior to confluency. Cells were passed by splitting the culture 1/10—by removing media by aspiration, washing 1× with PBS, incubating with 0.25% trypsin/EDTA until the cells detach, disbursing the cells in fresh growth media, and plating at 1/10 dilutions in fresh growth media. For long term cryopreservation, cells are detached from the plate as described above, collected by centrifugation, resuspended in freeze medium (growth medium, 10% DMSO), stored in 1.8 mL cyropreservation vials (˜2−5×10^6 cells per vial), in liquid nitrogen vapor storage tanks.
# IDOl-expressing 293-T-Rex™ cell lines were generated by stable transfection of plasmid pcDNA-tetO-IDO expressing human IDO or murine IDO under the control of the doxycycline-inducible CMV-tet promoter. Transfected cells were selected in DBZ medium (DMEM, 10% FBS, 1× Penicillin+Streptomycin, 2 mM L-glutamine, 5 μg/mL blasticidin and 25 μg/ml Zeocin) at 37° C. with a 5% CO2 in air atmosphere. Individual clones were isolated by limiting dilution cloning from these populations.
# […]. The cells incubated in Neutral medium serve as negative control of the assay. The cells incubated in Induction medium and without inhibitor serve as the positive control of the assay. The incubation is carried out for 16 h at 37° C. in a cell culture incubator. 200 μL of medium are transferred to U-bottom polypropylene 96-well plates containing 25 μL of 30% TCA, incubated 30 minutes at 60° C. and centrifuged at 3400 g for 5 minutes. 150 μL of the clear supernatant is transferred to a polystyrene 96-well plate containing 50 μL of 4% (w/v) of p-dimethylaminobenzaldehyde in acetic acid, incubated for 10 min. Kynurenine concentration is determined by measuring the absorbance at 480 nm.
# The conditions of the assay were as described in the examples.
# [1] = biological target: purified human IDO protein (Homo sapiens, UniProt P14902); experiment: Enzymatic IDO assay (kynurenine production, absorbance 480 nm); settings: enzymatic activity
# [2] = 293T cell line stably expressing human IDO, values reported in ranges
# [3] = hIDO IC50, recombinant human IDO, values reported in ranges
# [4] = hIDO IC50, Table 15, recombinant human IDO
# [5] = hIDO IC50, Table 16, recombinant human IDO
# Chain of human IDO (P14902 whole entry): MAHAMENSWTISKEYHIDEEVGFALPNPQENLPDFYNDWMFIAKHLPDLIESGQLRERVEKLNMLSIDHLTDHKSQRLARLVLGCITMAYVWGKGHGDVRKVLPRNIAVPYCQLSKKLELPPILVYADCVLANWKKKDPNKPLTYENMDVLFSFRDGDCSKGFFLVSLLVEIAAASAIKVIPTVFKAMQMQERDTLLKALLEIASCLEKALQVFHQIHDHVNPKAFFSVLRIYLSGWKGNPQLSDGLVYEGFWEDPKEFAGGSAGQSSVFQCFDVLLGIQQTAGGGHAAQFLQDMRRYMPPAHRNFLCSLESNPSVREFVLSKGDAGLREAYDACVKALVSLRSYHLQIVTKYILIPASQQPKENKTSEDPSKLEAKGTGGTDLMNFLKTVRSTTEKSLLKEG
# Chain of purified human IDO protein (P14902 whole entry P110S/E119G): as the sequence (P14902 whole entry) above, with P110S, E119G counted along it
Compound,EC50 (human IDO; [2]) [µM],"IC50 [1, 3] [µM]",other results
"CC(CC(=O)O)c1cccc([N+](=O)[O-])c1 (centres unmarked) [compound 282, 3-(3-nitrophenyl)butanoic acid]",1000 to 10000,100 to 1000,–
"CC(=O)NCC(ON)c1ccccc1 (centres unmarked) [compound 1899, N-(2-(aminooxy)-2-phenylethyl)acetamide]",–,–,"IC50 [1, 4]: 100 to 1000 µM"
"S=C(NCCc1c[nH]c2ccccc12)SCc1noc2ccccc12 [compound 52, Benzo[d]isoxazol-3-ylmethyl 2-(1H-indol-3-yl)ethylcarbamodithioate]",20 to 100,20 to 100,–
"S=C1NC(c2ccccc2)NC(c2ccccc2)S1 (centres unmarked) [compound 152, 4,6-diphenyl-1,3,5-thiadiazinane-2-thione]",20 to 100,20 to 100,–
"S=C(NCc1ccc2ccccc2c1)Nc1nccs1 [compound 591, 1-(naphthalen-2-ylmethyl)-3-(thiazol-2-yl)thiourea]",–,100 to 1000,–
"O=C(Cc1csc(=S)[nH]1)NCc1c[nH]c2ccccc12 [compound 561, N-((1H-indol-3-yl)methyl)-2-(2-thioxo-2,3-dihydrothiazol-4-yl)acetamide]",20 to 100,100 to 1000,–
"CCC(CC)C1NC(C(=O)O)Cc2c1[nH]c1ccccc21 (centres unmarked) [compound 525, 1-(pentan-3-yl)-2,3,4,9-tetrahydro-1H-pyrido[3,4-b]indole-3-carboxylic acid]",–,100 to 1000,–
"Oc1ccccc1C(=S)NCCc1ccccc1 [compound 634, 2-Hydroxy-N-phenethylbenzothioamide]",100 to 1000,100 to 1000,–
"CC(CSC(=S)NCCc1c[nH]c2ccccc12)c1ccccc1 (centres unmarked) [compound 6, 2-Phenylpropyl 2-(1H-indol-3-yl)ethylcarbamodithioate]",100 to 1000,100 to 1000,–
"NOC(CN1CCOCC1)c1ccccc1 (centres unmarked) [compound 1936, O-(2-morpholino-1-phenylethyl)hydroxylamine]",–,–,"IC50 [1, 4]: 10 to 100 µM"
"COc1ccc(CCSC(=S)NCCc2c[nH]c3ccccc23)cc1 [compound 2, 4-Methoxyphenethyl 2-(1H-indol-3-yl)ethylcarbamodithioate]",100 to 1000,100 to 1000,–
"S=C1OCCN1Cc1ccccc1 [compound 81, 3-Benzyloxazolidine-2-thione]",–,100 to 1000,–
"Oc1ccccc1C(=S)NCc1ccccc1 [compound 656, N-Benzyl-2-hydroxybenzothioamide]",20 to 100,100 to 1000,–
"COc1cc2oc(=O)cc(CSC(=S)NCCc3c[nH]c4ccccc34)c2cc1OC [compound 23, (6,7-Dimethoxy-2-oxo-2H-chromen-4-yl)methyl 2-(1H-indol-3-yl)ethyl-carbamodithioate]",20 to 100,100 to 1000,–
"CNCC(ON)c1ccccc1 (centres unmarked) [compound 1902, 2-(aminooxy)-N-methyl-2-phenylethanamine]",–,–,"IC50 [1, 4]: 100 to 1000 µM"
"Cc1ccc(SC(=S)Nc2ccccc2)cc1 [compound 142, p-tolyl phenylcarbamodithioate]",100 to 1000,< 20,–
"CC(C)(C)OC(=O)NCC(ON)c1ccccc1 (centres unmarked) [compound 1876, tert-butyl 2-(aminooxy)-2-phenylethylcarbamate]",–,–,"IC50 [1, 4]: 100 to 1000 µM"
"NOC(COc1ccccc1)c1ccccc1 (centres unmarked) [compound 1937, O-(2-phenoxy-1-phenylethyl)hydroxylamine]",–,–,"EC50 (human IDO; Table 15, 293T cells expressing human IDO): < 10 µM; IC50 [1, 4]: < 10 µM"
"NCCC(ON)c1ccccc1 (centres unmarked) [compound 1877, 3-(aminooxy)-3-phenylpropan-1-amine]",–,–,"IC50 [1, 4]: 10 to 100 µM"

Compound,EC50 (human IDO; [2]) [µM],"IC50 [1, 3] [µM]",other results
"Oc1ccccc1C(=S)NCCc1csc2ccccc12 [compound 672, N-(2-(benzo[b]thiophen-3-yl)ethyl)-2-hydroxybenzothioamide]",20 to 100,100 to 1000,–
"Nc1ccc2[nH]cc(CCC(=O)O)c2c1 [compound 325, 3-(5-amino-1H-indol-3-yl)propanoic acid]",1000 to 10000,100 to 1000,–
"Fc1ccc(CCSC(=S)NCCc2c[nH]c3ccccc23)cc1 [compound 3, 4-Fluorophenethyl 2-(1H-indol-3-yl)ethylcarbamodithioate]",100 to 1000,100 to 1000,–
CSC(=S)NCCc1c[nH]c2cc(F)c(F)c(F)c12 [compound 45],100 to 1000,–,"IC50 ([1]; read-out: hIDO IC50, recombinant human IDO, values reported in ranges): 100 to 1000 µM"
"O=C1C=Cc2ccccc2C1=O [compound 167, naphthalene-1,2-dione]",20 to 100,< 20,–
"Nc1ccccc1NC(=O)CCc1c[nH]c2ccccc12 [compound 592, N-(2-aminophenyl)-3-(1H-indol-3-yl)propanamide]",–,100 to 1000,–
"NOC(CCC(=O)NC1CCCCC1)c1ccccc1 (centres unmarked) [compound 1901, 4-(aminooxy)-N-cyclohexyl-4-phenylbutanamide]",–,–,"IC50 [1, 4]: 100 to 1000 µM"
"NO[C@H](Cc1ccccc1)C(=O)O [compound 1690, (R)-2-(aminooxy)-3-phenylpropanoic acid]",–,–,"IC50 [1, 5]: 100 to 1000 µM"
"NO[C@@H](CCO)c1ccccc1 [compound 1883, (S)-3-(aminooxy)-3-phenylpropan-1-ol]",–,–,"IC50 [1, 4]: 100 to 1000 µM"
"O=C(O)CCn1[nH]c(=O)c2ccccc21 [compound 267, 3-(3-oxo-2,3-dihydro-1H-indazol-1-yl)propanoic acid]",–,100 to 1000,–
"S=C(NCCCc1c[nH]c2ccccc12)c1ccccc1 [compound 673, N-(3-(1H-indol-3-yl)propyl)benzothioamide]",–,100 to 1000,–
"CNC(=O)[C@H](ON)c1ccccc1 [compound 2034, (R)-2-(aminooxy)-N-methyl-2-phenylacetamide]",–,–,"IC50 [1, 4]: 100 to 1000 µM"
"NOC(CCN1CCOCC1)c1ccccc1 (centres unmarked) [compound 1929, O-(3-morpholino-1-phenylpropyl)hydroxylamine]",–,–,"IC50 [1, 4]: 100 to 1000 µM"
"Cc1cccc(CCSC(=S)NCCc2c[nH]c3ccccc23)c1 [compound 20, 3-Methylphenethyl 2-(1H-indol-3-yl)ethylcarbamodithioate]",–,100 to 1000,–
"CNC(=O)[C@@H](ON)c1ccccc1 [compound 2033, (S)-2-(aminooxy)-N-methyl-2-phenylacetamide]",–,–,"IC50 [1, 4]: < 10 µM"
"S=C(NCc1c[nH]c2ccccc12)Nc1nccs1 [compound 568, 1-((1H-indol-3-yl)methyl)-3-(thiazol-2-yl)thiourea]",–,100 to 1000,–
"NOc1ccccc1 [compound 1900, O-phenylhydroxylamine]",–,–,"IC50 [1, 5]: 10 to 100 µM"
"CNCCC(ON)c1ccccc1 (centres unmarked) [compound 1904, 3-(aminooxy)-N-methyl-3-phenylpropan-1-amine]",–,–,"IC50 [1, 4]: 100 to 1000 µM"

# Continued, in another order:
EC50 (human IDO; [2]) [µM],"IC50 [1, 3] [µM]",Compound,other results
–,100 to 1000,"O=C(Cc1ccccc1)NO [compound 889, N-hydroxy-2-phenylacetamide]",–
100 to 1000,100 to 1000,"Nc1ccccc1NC(=O)CCCc1c[nH]c2ccccc12 [compound 588, N-(2-aminophenyl)-4-(1H-indol-3-yl)butanamide]",–
20 to 100,20 to 100,"S=C(NCCC1CCc2ccccc2O1)SCc1ccc2ccccc2c1 (centres unmarked) [compound 63, naphthalen-2-ylmethyl 2-(chroman-2-yl)ethylcarbamodithioate]",–
20 to 100,100 to 1000,"S=C(NCCc1c[nH]c2ccccc12)SCCc1c[nH]c2ccccc12 [compound 30, 2-(1H-Indol-3-yl)ethyl 2-(1H-indol-3-yl)ethylcarbamodithioate]",–
100 to 1000,100 to 1000,"Nc1ccccc1NC(=O)CCc1csc2ccccc12 [compound 739, N-(2-aminophenyl)-3-(benzo[b]thiophen-3-yl)propanamide]",–
–,100 to 1000,"Oc1noc(O)c1-c1ccccc1 [compound 707, 4-phenylisoxazole-3,5-diol]",–
100 to 1000,100 to 1000,"S=C(NCCc1c[nH]c2ccccc12)SCCc1cccc(Br)c1 [compound 7, 3-Bromophenethyl 2-(1H-indol-3-yl)ethylcarbamodithioate]",–
–,100 to 1000,"S=C1SCCCN1Cc1ccccc1 [compound 77, 3-Benzyl-1,3-thiazinane-2-thione]",–
–,100 to 1000,"S=C(NCCCc1c[nH]c2ccccc12)Nc1nccs1 [compound 565, 1-(3-(1H-indol-3-yl)propyl)-3-(thiazol-2-yl)thiourea]",–
–,100 to 1000,"Oc1ccc(Cc2ccccc2)c2cccnc12 [compound 664, 5-benzylquinolin-8-ol]",–
–,100 to 1000,"OCCc1c[nH]c2ccccc12 [compound 606, 2-(1H-indol-3-yl)ethanol]",–
–,100 to 1000,"CSC(=S)NCCc1ccncc1 [compound 69, Methyl 2-(pyridin-4-yl)ethylcarbamodithioate]",–
–,100 to 1000,"S=C1OCCN1Cc1ccc2ccccc2c1 [compound 786, 3-(Naphthalen-2-ylmethyl)oxazolidine-2-thione]",–
